A short description of data set [1]: Cmax in CD rat at […], po by LC-MS analysis. Set-up: dose 2.5 mg/kg, route oral. Conditions: in vivo. The class given is ADME, organism-based.
The nature of data set [2]: AUC (0 to last) in CD rat at […], po by LC-MS analysis. Type of data set: ADME, organism-based. Details: dose 2.5 mg/kg, route oral, time 0 - last. To be noted: in vivo.
Data set [3] can be described thus: Apparent permeability of the compound from apical to basolateral side in human Caco2 cells. To be noted: Caco-2. Type of data set: ADME, cell-based. Background: Caco-2 cells form a polarised layer with tight junctions and transporters.

What is called Cmax is the peak of the concentration-time curve. Usually AUC(0-t) stands for the area under the concentration-time curve up to a stated or last time point. A high value points to high exposure. Broadly, the Papp A→B is how fast a substance crosses the layer from the apical side.

SMILES strings stand for the structures.

Turning to `CCOc1nc(-c2ccc3nc(NC(C)=O)cn3c2)cnc1N`, the highest level in data set [1] (Cmax) was 3.6 µM. The molecule also came in with an AUC(0-t) in data set [2] of 7 µM·h.
In data set [1], `CC(=O)Nc1cn2cc(-c3cnc(N)c(OCC(F)(F)F)n3)ccc2n1` displayed a Cmax of 1.5 µM. Further, in data set [2], the AUC(0-t) was determined as 4 µM·h.
As for `COc1nc(-c2ccc3nc(NC(C)=O)cn3c2)cnc1N`, in data set [1], the peak level (Cmax) was 8.9 µM. The molecule also showed an area under the curve AUC(0-t) in data set [2] of 15 µM·h.
For `CC(=O)Nc1cn2cc(-c3cnc(N)c(OC(C)C)n3)ccc2n1`, the Cmax in data set [1] came out at 1.3 µM. Further, the AUC(0-t) in data set [2] came out at 13 µM·h.
Consider `COCCOc1nc(-c2ccc3nc(NC(C)=O)cn3c2)cnc1N`, for which the Cmax in data set [1] stood at 4 µM. In data set [2], this molecule yielded an AUC(0-t) of 14 µM·h.
Turning to `CC(=O)Nc1cn2cc(-c3cnc(N)c(OC(C)C(F)(F)F)n3)ccc2n1` (racemic), in data set [3], the Papp A→B turned out to be 41 ×10⁻⁶ cm/s. In addition, the Cmax in data set [1] came to 3 µM. The molecule also had an AUC(0-t) in data set [2] of 49 µM·h.

The values above are taken from ChEMBL document CHEMBL3751828, “Discovery of imidazo[1,2-a]-pyridine inhibitors of pan-PI3 kinases that are efficacious in a mouse xenograft model” (Bioorg Med Chem Lett, 2016).
